Measured values: PubChem BioAssay (NCI)
Several values for one entry are separate records, joined by “and”; a condition that tells them apart may be missing. Equal values may be shown once.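 These data come from cells grown in 96-well plates and exposed to compound for 48 hours at five concentrations. GI50 marks 50% less growth. The concentration for full growth arrest is given as TGI.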 Where a SMILES comes first, the peptide text is derived from it.

Legend:
Assay in all cases: growth of human tumour cells (NCI), 48 h
[1] = tested on: DMS 273 small cell lung
[2] = tested on: DU-145 prostate
[3] = tested on: HOP-18 NSCLC
[4] = tested on: LXFL 529 NSCLC
[5] = tested on: MCF7 breast
[6] = tested on: MDA-MB-231 breast
[7] = tested on: NCI/ADR-RES ovarian
[8] = tested on: SNB-78 CNS
[9] = tested on: XF 498 CNS
[10] = tested on: BT-549 breast

Row | SMILES | TGI [1] | TGI [2] | TGI [3] | TGI [4] | TGI [5] | TGI [6] | TGI [7] | TGI [8] | TGI [9] | TGI [10] | GI50 [3]
1 | CC(C)CC(NC(=O)C(CC(C)C)NC(=O)C(Cc1cnc[nH]1)NC(=O)C(C)NC(=O)C(NC(=O)C(C)NC(=O)C(Cc1c[nH]c2ccccc12)NC(=O)C(CCC(=O)O)NC(=O)C(N)Cc1ccccc1)C(C)C)C(N)=O (stereo not given) (H-FEWAVAHLL-NH2; configuration not given here) | > 100 µM | > 12.5 µM | > 100 µM | > 100 µM | > 12.5 µM | > 12.5 µM | > 12.5 µM | > 100 µM | > 100 µM | – | –
2 | O=C1CCCC2=C(N1)C(=O)C=CC2=O | > 100 µM | 31.2 µM | > 100 µM | > 100 µM | 38.4 µM | 33.5 µM | > 70.5 µM | > 100 µM | > 100 µM | 31.1 µM | –
3 | CNNCc1ccc(C(=O)NC(C)C)cc1 | > 500 µM | > 500 µM | 139 µM and > 500 µM | > 500 µM | > 500 µM | > 500 µM | > 500 µM | > 500 µM | > 500 µM | > 500 µM | > 500 µM
